Reference: patent publication US20100239655A1, “TAURINE-BASED COMPOSITIONS AND THERAPEUTIC METHODS” (priority 2004, published 2010)

Tested on: normal human epidermal keratinocytes
Assay: Protection of keratinocytes from ultraviolet induced cell death (apoptosis)
Type: cell-based
Details: even at micromolar concentrations
From the text: This effect is independent from and in addition to, the skin barrier repair and hydrating effects taurine exerts on dermal cells.

Compound: NCCS(=O)(=O)O [taurine, Taurine]
- protection from ultraviolet induced cell death (apoptosis): can protect
